Active and inactive are the calls of the source. No cut-off for these calls is given here. Bounds are passed on as bounds.

The text below walks through data of ChEMBL document CHEMBL4834457, “Discovery and optimization of selective RET inhibitors via scaffold hopping” (Bioorg Med Chem Lett, 2021).

For data set [1], the system named is BaF3. Nature of the data set: Antiproliferative activity against mouse KIF5B-RET BaF3 cells by cell based assay. In kind it is functional.
A short description of data set [2]: Intrinsic clearance in mouse liver microsomes. In kind it is ADME, Microsome. Particulars: read-out: CLH.
The nature of data set [3]: Clearance in mouse. In kind it is ADME, organism-based. Particulars: in vivo.
A short description of data set [4]: Volume of distribution in mouse. In kind it is ADME, organism-based. As to conditions: in vivo.
A short description of data set [5]: AUC in mouse plasma at 10 mg/kg, po. The format is ADME, organism-based. Further details: dose 10 mg/kg.
A short description of data set [6]: Oral bioavailability in mouse. In kind it is ADME, organism-based. Particulars: in vivo.
Data set [7] relates to BaF3. The data set is described as follows: Antitumor activity against mouse KIF5B-RET BaF3 cells xenografted in nu/nu mouse assessed as tumour growth inhibition at 10 mg/kg, po qd for 10 days. In kind it is functional, organism-based. Particulars: time 10.0 day.
The nature of data set [8]: Toxicity in mouse transplanted with mouse KIF5B-RET Ba/F3 cells assessed as change in body weight at 10 mg/kg, po […] for 10 days relative to control. The format is organism-based, BaF3. As to conditions: in vivo, 240 h, time 10 day.
Data set [9] addresses Tyrosine-protein kinase JAK2 (Homo sapiens, UniProt O60674). The data set is described as follows: Inhibition of JAK2 (unknown origin).
For data set [10], the target named is T1, Receptor-type tyrosine-protein kinase FLT3 (Homo sapiens, UniProt P36888).
T1 sequence (P36888 whole entry): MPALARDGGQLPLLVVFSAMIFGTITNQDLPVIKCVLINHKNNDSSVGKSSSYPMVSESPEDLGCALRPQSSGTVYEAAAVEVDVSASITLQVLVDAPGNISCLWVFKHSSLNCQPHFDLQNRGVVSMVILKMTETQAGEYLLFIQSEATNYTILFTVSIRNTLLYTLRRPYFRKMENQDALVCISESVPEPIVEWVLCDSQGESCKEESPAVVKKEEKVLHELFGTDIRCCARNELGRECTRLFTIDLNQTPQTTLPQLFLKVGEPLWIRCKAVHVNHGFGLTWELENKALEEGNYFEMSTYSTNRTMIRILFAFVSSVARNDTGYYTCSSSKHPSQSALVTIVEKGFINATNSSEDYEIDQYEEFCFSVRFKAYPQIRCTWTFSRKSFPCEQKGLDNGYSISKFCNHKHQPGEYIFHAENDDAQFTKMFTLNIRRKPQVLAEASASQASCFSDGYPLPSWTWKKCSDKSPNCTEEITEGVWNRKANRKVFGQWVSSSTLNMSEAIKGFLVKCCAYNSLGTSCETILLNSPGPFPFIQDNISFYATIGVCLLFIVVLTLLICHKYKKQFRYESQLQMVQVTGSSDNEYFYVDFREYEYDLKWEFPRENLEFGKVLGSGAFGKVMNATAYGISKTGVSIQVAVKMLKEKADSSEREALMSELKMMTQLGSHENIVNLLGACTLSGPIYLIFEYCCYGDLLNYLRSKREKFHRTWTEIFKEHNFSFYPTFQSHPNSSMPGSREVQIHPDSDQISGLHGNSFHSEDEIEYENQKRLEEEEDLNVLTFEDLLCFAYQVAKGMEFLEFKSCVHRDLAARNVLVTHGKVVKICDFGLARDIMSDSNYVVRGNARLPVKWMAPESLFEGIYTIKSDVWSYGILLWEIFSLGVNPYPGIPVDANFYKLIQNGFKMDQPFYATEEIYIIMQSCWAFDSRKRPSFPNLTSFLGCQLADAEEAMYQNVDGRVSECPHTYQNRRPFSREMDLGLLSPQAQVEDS
Nature of the data set: Inhibition of FLT3 (unknown origin).

The nature of data set [11]: Intrinsic clearance in human liver microsomes. The format is ADME, Microsome. Particulars: read-out: CLH.
A short description of data set [12]: Drug level in plasma of mouse transplanted with mouse KIF5B-RET Ba/F3 cells at 10 mg/kg, po qd for 10 days measured after 8.5 hrs. The format is ADME, organism-based, BaF3. As to conditions: time 10 day.
Data set [13] in a line: Drug level in tumor of mouse transplanted with mouse KIF5B-RET Ba/F3 cells at 10 mg/kg, po qd for 10 days measured after 8.5 hrs. In kind it is ADME, organism-based, Neoplasm, BaF3. Particulars: in vivo, 240 h, time 10 day.
The target of data set [14] is Proto-oncogene tyrosine-protein kinase receptor Ret (Homo sapiens, UniProt P07949). The data set is described as follows: Inhibition of RET wild type (unknown origin).
Chain of Proto-oncogene tyrosine-protein kinase receptor Ret (Homo sapiens, UniProt P07949) (P07949 whole entry): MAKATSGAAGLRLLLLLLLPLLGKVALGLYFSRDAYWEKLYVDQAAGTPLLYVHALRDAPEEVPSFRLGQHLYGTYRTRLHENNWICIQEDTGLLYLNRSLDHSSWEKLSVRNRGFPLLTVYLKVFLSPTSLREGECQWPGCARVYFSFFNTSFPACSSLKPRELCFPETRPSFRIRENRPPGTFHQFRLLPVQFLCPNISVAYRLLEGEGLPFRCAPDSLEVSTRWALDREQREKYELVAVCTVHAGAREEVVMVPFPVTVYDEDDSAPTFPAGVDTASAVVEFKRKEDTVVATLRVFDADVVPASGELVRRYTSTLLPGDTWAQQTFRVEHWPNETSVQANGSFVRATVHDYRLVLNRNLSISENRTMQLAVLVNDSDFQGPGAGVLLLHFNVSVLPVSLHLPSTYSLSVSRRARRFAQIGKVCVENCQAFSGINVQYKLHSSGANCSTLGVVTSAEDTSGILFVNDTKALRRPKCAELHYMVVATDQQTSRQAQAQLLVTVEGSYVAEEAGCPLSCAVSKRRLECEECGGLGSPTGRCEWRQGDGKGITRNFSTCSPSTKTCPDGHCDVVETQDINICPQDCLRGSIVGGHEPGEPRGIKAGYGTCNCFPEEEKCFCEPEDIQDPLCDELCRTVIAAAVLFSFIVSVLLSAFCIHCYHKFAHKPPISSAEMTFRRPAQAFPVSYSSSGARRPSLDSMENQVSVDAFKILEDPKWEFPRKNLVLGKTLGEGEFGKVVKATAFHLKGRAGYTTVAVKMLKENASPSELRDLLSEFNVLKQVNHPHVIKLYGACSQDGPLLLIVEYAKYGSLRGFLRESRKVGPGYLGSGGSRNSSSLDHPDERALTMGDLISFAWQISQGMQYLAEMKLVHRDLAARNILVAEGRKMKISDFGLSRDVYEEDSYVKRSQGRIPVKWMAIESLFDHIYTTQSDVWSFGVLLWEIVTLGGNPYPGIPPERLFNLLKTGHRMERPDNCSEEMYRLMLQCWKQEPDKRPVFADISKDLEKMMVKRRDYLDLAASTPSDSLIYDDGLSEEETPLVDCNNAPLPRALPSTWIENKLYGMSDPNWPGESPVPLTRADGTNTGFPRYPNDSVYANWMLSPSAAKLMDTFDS
Data set [15] concerns the target Proto-oncogene tyrosine-protein kinase receptor Ret (Homo sapiens, UniProt P07949, V804M). The data set is described as follows: Inhibition of RET V804M mutant (unknown origin).
For data set [16], the target named is Proto-oncogene tyrosine-protein kinase receptor Ret (Homo sapiens, UniProt P07949, M918T). Nature of the data set: Inhibition of RET M918T mutant (unknown origin).
Chain of Proto-oncogene tyrosine-protein kinase receptor Ret (Homo sapiens, UniProt P07949, M918T) (P07949 29-1114 M918T limits assumed): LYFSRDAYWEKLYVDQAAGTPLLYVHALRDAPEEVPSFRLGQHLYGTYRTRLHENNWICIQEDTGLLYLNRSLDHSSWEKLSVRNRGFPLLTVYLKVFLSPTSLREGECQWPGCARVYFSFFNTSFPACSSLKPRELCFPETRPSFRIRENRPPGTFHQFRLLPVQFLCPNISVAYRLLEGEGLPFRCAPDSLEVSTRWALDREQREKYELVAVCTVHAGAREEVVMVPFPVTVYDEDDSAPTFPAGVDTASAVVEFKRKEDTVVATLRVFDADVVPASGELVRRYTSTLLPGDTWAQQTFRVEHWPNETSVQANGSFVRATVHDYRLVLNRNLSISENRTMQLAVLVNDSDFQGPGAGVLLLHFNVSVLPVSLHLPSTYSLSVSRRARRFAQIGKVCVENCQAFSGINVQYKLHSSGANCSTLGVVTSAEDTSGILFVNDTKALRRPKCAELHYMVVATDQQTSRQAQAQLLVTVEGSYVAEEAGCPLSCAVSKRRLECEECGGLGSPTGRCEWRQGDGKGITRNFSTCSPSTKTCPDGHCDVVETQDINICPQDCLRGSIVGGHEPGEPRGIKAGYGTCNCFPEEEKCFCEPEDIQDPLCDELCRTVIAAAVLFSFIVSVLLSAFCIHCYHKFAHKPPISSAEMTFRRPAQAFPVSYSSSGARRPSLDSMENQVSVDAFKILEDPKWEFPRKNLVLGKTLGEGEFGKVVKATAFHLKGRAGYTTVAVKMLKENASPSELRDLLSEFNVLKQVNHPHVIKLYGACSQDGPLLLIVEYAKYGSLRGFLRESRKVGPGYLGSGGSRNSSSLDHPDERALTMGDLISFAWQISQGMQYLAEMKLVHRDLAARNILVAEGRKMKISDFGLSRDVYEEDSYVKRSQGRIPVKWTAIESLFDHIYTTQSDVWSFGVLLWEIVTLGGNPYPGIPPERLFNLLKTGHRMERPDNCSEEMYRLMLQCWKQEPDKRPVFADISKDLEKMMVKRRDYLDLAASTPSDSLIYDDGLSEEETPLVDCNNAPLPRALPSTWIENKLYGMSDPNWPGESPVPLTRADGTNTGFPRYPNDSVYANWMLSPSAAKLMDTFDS
For data set [17], the system named is BaF3. Nature of the data set: Antitumor activity against mouse KIF5B-RET BaF3 cells xenografted in nu/nu mouse assessed as tumour growth inhibition at 20 mg/kg, po qd for 10 days. Particulars: time 10.0 day. In kind it is functional, organism-based.
Data set [18] in a line: Toxicity in mouse transplanted with mouse KIF5B-RET Ba/F3 cells assessed as change in body weight at 20 mg/kg, po […] for 10 days relative to control. The format is organism-based, BaF3. Particulars: in vivo, 240 h, time 10 day.

Chain of Tyrosine-protein kinase JAK2 (O60674 whole entry): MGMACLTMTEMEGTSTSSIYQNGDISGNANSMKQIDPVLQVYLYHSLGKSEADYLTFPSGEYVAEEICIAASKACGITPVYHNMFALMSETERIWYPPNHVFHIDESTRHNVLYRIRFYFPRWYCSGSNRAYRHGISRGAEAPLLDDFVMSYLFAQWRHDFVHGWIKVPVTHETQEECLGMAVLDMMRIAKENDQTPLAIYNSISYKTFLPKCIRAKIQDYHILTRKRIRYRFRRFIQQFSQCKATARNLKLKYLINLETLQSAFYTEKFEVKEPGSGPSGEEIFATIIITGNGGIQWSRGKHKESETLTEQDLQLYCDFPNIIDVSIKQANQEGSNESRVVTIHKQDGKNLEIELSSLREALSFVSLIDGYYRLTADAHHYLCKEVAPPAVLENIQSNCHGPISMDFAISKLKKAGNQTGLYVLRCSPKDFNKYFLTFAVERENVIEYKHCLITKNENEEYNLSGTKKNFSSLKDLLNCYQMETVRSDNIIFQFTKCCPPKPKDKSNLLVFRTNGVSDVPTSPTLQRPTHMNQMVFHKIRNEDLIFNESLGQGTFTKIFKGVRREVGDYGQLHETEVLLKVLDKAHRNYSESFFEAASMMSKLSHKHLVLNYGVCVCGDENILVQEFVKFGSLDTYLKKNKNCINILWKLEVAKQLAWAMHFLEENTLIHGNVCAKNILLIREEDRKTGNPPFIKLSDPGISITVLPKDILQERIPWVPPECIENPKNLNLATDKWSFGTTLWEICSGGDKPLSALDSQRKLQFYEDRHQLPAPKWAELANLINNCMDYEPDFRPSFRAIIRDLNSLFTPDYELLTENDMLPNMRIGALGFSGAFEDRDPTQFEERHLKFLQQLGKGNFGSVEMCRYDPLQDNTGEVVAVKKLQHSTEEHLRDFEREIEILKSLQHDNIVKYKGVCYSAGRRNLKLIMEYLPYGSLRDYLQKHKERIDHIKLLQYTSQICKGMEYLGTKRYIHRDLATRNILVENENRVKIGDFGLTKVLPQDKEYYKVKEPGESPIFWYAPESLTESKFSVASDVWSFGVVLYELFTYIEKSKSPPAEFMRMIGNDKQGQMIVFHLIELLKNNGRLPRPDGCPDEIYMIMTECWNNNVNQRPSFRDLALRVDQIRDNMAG
Chain of Proto-oncogene tyrosine-protein kinase receptor Ret (Homo sapiens, UniProt P07949, V804M) (P07949 29-1114 V804M limits assumed): as the sequence (P07949 29-1114 M918T limits assumed) above, with V776M, T890M counted along it

With `CO[C@]1(C(=O)N[C@@H](C)c2ccc(-n3cc(F)cn3)nc2)CC[C@H](c2nc(C)cc(Nc3cc(C)[nH]n3)n2)CC1` [PRALSETINIB], the IC50 in the data set on BaF3 [1] was found to be 17 nM; in [9], 2 nM; in data set [10], 6.5 nM. In addition, the CLint scaled is under 38 mL/min/kg in [2] and under 8.6 mL/min/kg in data set [11]. This compound also came in with a clearance in [3] of 5 mL/min/kg. For the same compound, in data set [4], the Vd was found to be 0.7 L/kg. For the same compound, the AUC in data set [5] came out at 46.1 µM·h. In data set [6], this compound registered a bioavailability of 77.2%. In the data set on BaF3 [7], the outcome was Active. Also, the Activity result in data set [8] was “Non-Toxic”. The compound further yielded a concentration at 240 h in [12] of 6.32 µM. Besides, in [13], the Drug uptake stood at 2522 nmol/kg.

As for `Cc1cc(Nc2cc(C)[nH]n2)nc(N2CCC3(CCCN([C@@H](C)c4ccc(-n5cc(F)cn5)nc4)C3=O)CC2)n1`, it took 14 nM to reach half-maximal inhibition with BaF3 [1] (IC50). Further, the CLint scaled amounted to 155 mL/min/kg in [2] and 36.4 mL/min/kg in [11].

As for `Cc1cc(Nc2cc(C)[nH]n2)nc(C2CCC3(CCCN([C@@H](C)c4ccc(-n5cc(F)cn5)nc4)C3=O)CC2)n1` (some centres undefined), the results for the CLint scaled in data set [2] and in data set [11] were under 38 mL/min/kg and under 8.6 mL/min/kg, respectively.

In the case of `Cc1cc(Nc2cc(C)[nH]n2)nc(N2CCC3(CC2)OCCN([C@@H](C)c2ccc(-n4cc(F)cn4)nc2)C3=O)n1`, the IC50 in [14] is 1.29 nM; in data set [15], 1.97 nM; in [16], 0.9 nM; in the data set on BaF3 [1], 19 nM; in data set [9], 4.4 nM; in data set [10], 30.8 nM. The CLint scaled in data set [2] was determined as 79 mL/min/kg; in [11] it was 24.1 mL/min/kg. This compound registered a clearance in data set [3] of 6.6 mL/min/kg. The compound also had a Vd in data set [4] of 1.5 L/kg. The compound further had an AUC in data set [5] of 27.7 µM·h. In data set [6], this compound yielded a bioavailability of 59.7%. Moreover, the outcome with BaF3 [7] and with BaF3 [17] was Active. The Activity result in [8] and in data set [18] was “Non-Toxic” each time. This compound also gave a concentration at 240 h in [12] of 3.94 µM. The compound also returned a Drug uptake in data set [13] of 8100 nmol/kg.

Take `Cc1cc(Nc2cc(C)[nH]n2)nc(N2CCC3(CCCN([C@@H](C)c4cnc(-n5cc(F)cn5)cn4)C3=O)CC2)n1`: the IC50 in the data set with BaF3 [1] was found to be 19 nM. Besides, the CLint scaled is 136 mL/min/kg in data set [2] and 31.3 mL/min/kg in data set [11].

As a reminder, the IC50 is the concentration needed to halve the response being measured. Higher therefore signals a need for much substance. Broadly, the clearance is a measure of how efficiently the substance is removed, as volume per time. Broadly, the Vd is a proportionality between amount in the body and measured concentration, not a real space. By AUC is commonly meant the area under the concentration-time curve, a measure of exposure. High values mean more exposure, low ones less exposure. As usually defined, the bioavailability is dose-corrected exposure relative to a reference, in per cent. Lower therefore signals poor availability.
